According to patent US20050239873A1 (priority 1999, published 2005):

Experiments:
[1] = Stability in cell culture; type: in vitro ADME; conditions: HL-60 and RPMI-8226 cultures, 500 ng/ml
Description: HL60 and RPMI-8226 cells were maintained in cell culture medium in the presence or absence of 20% fetal bovine serum. 2-OMeA1 (500 ng/ml) was added to a culture containing 200,000 cells/ml, and to another flask containing only the medium. From the flasks, portions were removed at various times and, as appropriate, centrifuged to collect cells. Samples of cell-free medium, to which NaF/EDTA was added, were extracted. Collected cells were suspended in phosphate-buffered saline (PBS) containing NaF/EDTA, subjected to sonication, and then extracted and analyzed.

cellular O2 consumption = test: Cellular O2 consumption; type: cell-based; conditions: compared to antimycin A3
[2] = target: T1, recombinant human Bcl-2ΔC22 (Homo sapiens, UniProt P10415); test: Antimycin A3 fluorescence binding and competition assay; conditions: 2 μM each, Bcl-2 3 μM, 7.5 minutes, 22.5° C.
T1 construct: poly-His (N); made in house
Description: In this assay, 0 to 5 μM antimycin A3 (Sigma Chemical Co., St. Louis, Mo.) was added to a physiological buffer (50 mM Tris-HCl pH 8.0, 0.2 M NaCl, 2 mM EDTA, 0.5% v/v glycerol) containing recombinant Bcl-2 or BCl-xL protein under conditions that permitted antimycin A3 to bind to the BH3-binding domain of Bcl-2 or BCl-xL (22.5° C. on a Hitachi F-2500 fluorescence spectrofluorimeter equipped with a thermostatted cell holder). […] The excitation wavelength was 335 nm, and the maximum emission wavelength for antimycin A3 was 428 nm with a slit width of 10 nm. The samples were mixed in a quartz cuvette and checked for inner filter effect over the concentration range of antimycin A3 used for this study. Blanks containing antimycin A3 at the same concentration as the experimental samples were used as controls in all measurements and necessary background corrections were made.
Recombinant human Bcl-2ΔC22 (a recombinant human Bcl-2 with a delection of 22 amino acid residue membrane anchor sequence from the carboxyl end) and mouse Bcl-xLΔC20 (a recombinant murine BCl-xL with a delection of the 20 amino acid residue membrane anchor sequence from the carboxyl end) fused with poly-His at the N-terminus were chromatographically purified to homogeneity. The concentrations of antimycin A3 and stock solutions of recombinant proteins were quantitated using an extinction coefficient of 7.24/mM/cm at 320 nm and by Bradford assay, respectively. The stoichiometric ratio of antimycin A3 and Bcl-2 producing the maximal change in antimycin A3 fluorescence was determined with incremental addition of antimycin A3 to a 1.98 μM solution of recombinant Bcl-2 in a volume of 2.1 milliliters. […] For peptide displacement experiments, a solution of 2 μM antimycin A3 and 3 μM Bcl-2 was allowed to reach binding equilibrium at 4° C. prior to fluorescence measurements. Native peptide corresponding to the BH3 domain of Bak (72-[…]87 (SEQ ID NO:1)) or a mutant peptide with a single amino acid change (Leu78Ala-BH3) was added to the solution and the fluorescence measurements were repeated. […]

[3] = test system: control mitochondria (TABX1A cells); test: Rhodamine 123 retention assay; set-up: species or system murine
Description: Rh-123 is a cationic lipid-soluble fluorescent dye that accumulates in mitochondria in proportion to the mitochondrial membrane potential. Mitochondria were isolated from TABX2S cells (over-expressing Bcl-xL) and from control cells, prepared as described in Example 2. The isolated mitochondria were loaded with Rh-123 by incubating with 10 μM Rh-123 for 30 minutes, washed and resuspended in buffer. […] Less than 40% of Rh-123 was retained in antimycin A-treated TABX2S mitochondria, compared with greater than 80% retained in control mitochondria.
In contrast, the control cells, which express BCl-xL at physiological levels, were resistant to BH3 peptide-induced membrane depolarization.

[4] = test system: NB4, an acute promyelocytic cell line; test: Propidium iodide exclusion cytotoxicity; type: cell-based, human
Description: (§1) Cell survival was assayed by exclusion of propidium iodide (PI; 10 μg/ml) by unfixed cells. Annexin V-FITC (Pharmingen) or 3, 3′-dihexyloxacarbocyanine iodide (DiOC6(3); Molecular Probes) staining was analyzed together with PI to discriminate early apoptotic cells. Apoptotic cells were also measured as sub-G1 events among ethanol-fixed cells stained with 10 μg/ml PI. All cell samples were analyzed using a benchtop FACSCalibur™ (Becton Dickinson, San Jose, Calif.). Flow data were analyzed using MultiCycle AV software (Phoenix Flow Systems). For intracellular pH measurements, cell pellets were washed once and resuspended in 2 ml of HEPES-buffered medium (no phenol red and no serum). Carboxy-SNARF-1-AM (Molecular Probes, 1 mM stock in DMSO, stored at −20° C.) was added to a final concentration of 10 μM, and the cells were incubated for 30 min at 37° C. Following incubation with SNARF, cells were sedimented and the pellets were held on ice. Immediately before analysis, pellets were resuspended in […] (HBSS; experimental buffer) or high-[K+] buffer containing nigericin (calibration samples).

[5] = test system: myeloid leukemia cell lines; test: Propidium iodide exclusion cytotoxicity; type: cell-based, human; conditions: 20 μg/ml, even after 48 h; seven or eight cell lines
Description: as §1

[6] = test system: leukemia and lymphoma cell lines (DHL4, Daudi, Ramos, Molt4 and Jurkat); test: Propidium iodide exclusion cytotoxicity; type: cell-based, human; conditions: 5 to about 20 μg/ml
Description: as §1

[7] = test system: mitochondria from TABX1A cells; test: Swelling of isolated mitochondria (absorbance at 540 nm); set-up: species or system murine; conditions: even at much higher concentrations

T1 sequence (P10415 1-217 limits assumed, stated change not applied): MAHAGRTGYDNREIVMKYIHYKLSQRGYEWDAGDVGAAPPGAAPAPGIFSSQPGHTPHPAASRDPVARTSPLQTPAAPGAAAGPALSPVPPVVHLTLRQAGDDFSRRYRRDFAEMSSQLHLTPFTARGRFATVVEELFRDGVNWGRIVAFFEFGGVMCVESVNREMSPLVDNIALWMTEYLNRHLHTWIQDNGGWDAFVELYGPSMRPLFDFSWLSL

In the case of `CCCCCC[C@H]1C(=O)O[C@H](C)[C@H](NC(=O)c2cccc(NC=O)c2OC)C(=O)O[C@@H](C)[C@@H]1OC(=O)CC(C)C` [2-OMeA1, 2-methoxy antimycin A1], the “stability in the medium from cell cultures” value [1] is reported as “notably less stable in the absence of fetal bovine serum”.

In the case of `CCCC[C@H]1C(=O)OC(C)[C@H](NC(=O)c2cccc(NC=O)c2OC)C(=O)O[C@@H](C)C1OC(=O)CC(C)C` (stereo partly drawn) [2-OMeA3, Antimycin A3 methyl ether], the “effect on cellular O2 consumption” value (cellular O2 consumption) is reported as “negligible effect” and the “competition with antimycin A3 for Bcl-2” value [2] is reported as “competition for the antimycin A3 binding site”.

In the case of antimycin A, the Rh123 dye leakage ([3]; BH3 peptide 3.5 μM) is reported as “minimally affected”, the Rh-123 retained ([3]; five minutes after adding) is reported as “greater than 80%” and the “sensitivity (PI exclusion)” value [4] is reported as “modestly antimycin-sensitive”. For the same molecule, the “sensitivity (PI exclusion)” value [5] was “resistant”, the “sensitivity (PI exclusion)” value [6] was “sensitive” and the mitochondrial swelling [7] was “did not exhibit similar permeability changes and swelling”.
